Three compounds from ChEMBL document CHEMBL3112428, “Biological evaluation of diazene derivatives as anti-tubercular compounds” (Eur J Med Chem, 2014) can be followed below.

Values after ≈ are worked out from the molar mass of the structure shown.

This experiment has as its system Mycobacterium tuberculosis variant bovis. The experiment is described as follows: Antituberculosis activity against Mycobacterium bovis AN5 expressing lux gene assessed as inhibition of bacterial replication after 6 days by luminometry analysis. Particulars: AN5, 144 h. The class given is functional, organism-based.
As to `CCOC(=O)/N=N/C(=O)Nc1ccc(C)cc1`, the IC50 – broadly, the concentration at which inhibition is half-maximal – worked out at 2.78 µg/mL (≈ 11.8 µM).

With `O=C(/N=N/c1ccc(C(F)(F)F)cc1)Nc1ccccc1`, the concentration for half-maximal inhibition (IC50) amounted to 1.05 µg/mL (≈ 3.58 µM). Regarding `O=C(/N=N/c1ccc([N+](=O)[O-])cc1)Nc1ccccc1`, the IC50 worked out at 2.21 µg/mL (≈ 8.18 µM).
